# Measured values taken from PubChem BioAssay AID330 (DTP/NCI, 2004).
# “And” between values parts separate entries of the source, which are not always exact repeats. Equal entries are not always repeated. Inconclusive results and toxic doses are left out.
# System: P388 leukemia ip, CD2F1 mice, survival T/C
# Assay: NCI In Vivo Anticancer Drug Screen. Data for tumor model P388 Leukemia (intraperitoneal) in CD2F1 (CDF1) mice
# Details: endpoint: median survival time, higher = longer survival
# Outline: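 Mice carrying the transplanted tumor received test compound or vehicle. Survival was recorded in each group, and the value is the treated-group measurement divided by that of the vehicle-treated control group.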
# [1] = dose: 12.5 mg/kg/injection, schedule: Q01DX009 (ip), vehicle: saline with Tween-80
# [2] = dose: 50.0 mg/kg/injection, schedule: Q01DX009 (ip), vehicle: saline with Tween-80
# [3] = dose: 50.0 mg/kg/injection, schedule: Q01DX005 (ip), vehicle: Klucel (hydroxypropylcellulose) (HPC)
# [4] = dose: 100.0 mg/kg/injection, schedule: Q01DX005 (ip), vehicle: Klucel (hydroxypropylcellulose) (HPC)
# [5] = dose: 200.0 mg/kg/injection, schedule: Q01DX005 (ip), vehicle: Klucel (hydroxypropylcellulose) (HPC)
# [6] = dose: 50.0 mg/kg/injection, schedule: Q01DX009 (ip), vehicle: Klucel (hydroxypropylcellulose) (HPC)
# [7] = dose: 100.0 mg/kg/injection, schedule: Q01DX009 (ip), vehicle: Klucel (hydroxypropylcellulose) (HPC)
# [8] = dose: 50.0 mg/kg/injection, schedule: Q01DX009 (ip), vehicle: saline
# [9] = dose: 100.0 mg/kg/injection, schedule: Q01DX009 (ip), vehicle: saline
# [10] = dose: 50.0 mg/kg/injection, schedule: Q01DX005 (ip), vehicle: saline with Tween-80
# [11] = dose: 100.0 mg/kg/injection, schedule: Q01DX005 (ip), vehicle: saline with Tween-80
# [12] = dose: 200.0 mg/kg/injection, schedule: Q01DX005 (ip), vehicle: saline with Tween-80
# [13] = dose: 60.0 mg/kg/injection, schedule: Q01DX005 (ip), vehicle: saline with Tween-80
# [14] = dose: 120.0 mg/kg/injection, schedule: Q01DX005 (ip), vehicle: saline with Tween-80
# [15] = dose: 240.0 mg/kg/injection, schedule: Q01DX005 (ip), vehicle: saline with Tween-80
# [16] = dose: 12.5 mg/kg/injection, schedule: Q04DX002 (ip), vehicle: Klucel (hydroxypropylcellulose) (HPC)
# [17] = dose: 200.0 mg/kg/injection, schedule: Q01DX009 (ip), vehicle: saline
# [18] = dose: 60.0 mg/kg/injection, schedule: Q01DX005 (ip), vehicle: Klucel (hydroxypropylcellulose) (HPC)
# [19] = dose: 120.0 mg/kg/injection, schedule: Q01DX005 (ip), vehicle: Klucel (hydroxypropylcellulose) (HPC)
smiles,measurement,setting,value
NNC(=O)C1CCCC1,T/C,"dose: 6.25 mg/kg/injection, schedule: Q01DX009 (ip), vehicle: saline with Tween-80",113 % of control
same,T/C,[1],104 % of control
same,T/C,"dose: 25.0 mg/kg/injection, schedule: Q01DX009 (ip), vehicle: saline with Tween-80",100 % of control
same,T/C,[2],113 % of control
Cc1ccc(S(=O)(=O)C(Cc2cc(Cl)cc(Cl)c2O)C(=O)c2ccccc2)cc1 (stereo not drawn),T/C,[3],101 % of control
same,T/C,[4],90 % of control
same,T/C,[5],92 % of control
COC(=O)NC(=S)Nc1nnc(C)s1,T/C,"dose: 25.0 mg/kg/injection, schedule: Q04DX003 (ip), vehicle: saline with Tween-80",103 % of control
same,T/C,"dose: 50.0 mg/kg/injection, schedule: Q04DX003 (ip), vehicle: saline with Tween-80",256 % of control
same,T/C,"dose: 100.0 mg/kg/injection, schedule: Q04DX003 (ip), vehicle: saline with Tween-80",105 % of control
O=C(CC1(Cl)C(F)(F)C(F)(F)C1(F)F)c1ccccc1,T/C,"dose: 6.25 mg/kg/injection, schedule: Q04DX003 (ip), vehicle: saline",100 % of control
same,T/C,"dose: 12.5 mg/kg/injection, schedule: Q04DX003 (ip), vehicle: saline",100 % of control
same,T/C,"dose: 25.0 mg/kg/injection, schedule: Q04DX003 (ip), vehicle: saline",100 % of control
CC(C(=O)O)N1CN(/N=C/c2ccc(Cl)cc2Cl)C(N)=NC1(O)CCl (stereo not drawn),T/C,"dose: 60.0 mg/kg/injection, schedule: Q01DX005 (ip), vehicle: saline",101 % of control
same,T/C,"dose: 120.0 mg/kg/injection, schedule: Q01DX005 (ip), vehicle: saline",101 % of control
same,T/C,"dose: 240.0 mg/kg/injection, schedule: Q01DX005 (ip), vehicle: saline",115 % of control
O=C(O)c1cccc([N+](=O)[O-])c1O,T/C,[6],102 % of control
same,T/C,[7],105 % of control
same,T/C,"dose: 200.0 mg/kg/injection, schedule: Q01DX009 (ip), vehicle: Klucel (hydroxypropylcellulose) (HPC)",101 % of control
same,T/C,"dose: 400.0 mg/kg/injection, schedule: Q01DX009 (ip), vehicle: Klucel (hydroxypropylcellulose) (HPC)",100 % of control
COc1cc(CCN)ccc1OCc1ccccc1,T/C,"dose: 25.0 mg/kg/injection, schedule: Q01DX009 (ip), vehicle: saline",107 % of control
same,T/C,[8],104 % of control
same,T/C,[9],110 % of control
COc1ccc(CCN(C=O)CCc2ccc(OC)c(OC)c2)cc1OC,T/C,"dose: 25.0 mg/kg/injection, schedule: Q01DX009 (ip), vehicle: other",97 % of control
same,T/C,"dose: 100.0 mg/kg/injection, schedule: Q01DX009 (ip), vehicle: other",109 % of control
same,T/C,"dose: 200.0 mg/kg/injection, schedule: Q01DX009 (ip), vehicle: other",101 % of control
same,T/C,"dose: 400.0 mg/kg/injection, schedule: Q01DX009 (ip), vehicle: other",103 % of control
NNC(=O)C12CC3CC(CC(C3)C1)C2,T/C,"dose: 25.0 mg/kg/injection, schedule: Q01DX005 (ip), vehicle: Klucel (hydroxypropylcellulose) (HPC)",105 % of control
same,T/C,[3],105 % of control
same,T/C,[4],102 % of control
same,T/C,[5],112 % of control
O=c1oc2ccc(Br)cc2cc1-n1nnc2cc([N+](=O)[O-])ccc21,T/C,[10],90 % of control
same,T/C,[11],89 % of control
same,T/C,[12],89 % of control
COc1cccc2c1[C@@]1(C)C3C(=O)OC(C)(c4ccccc43)[C@@]1(C)C2=O (stereo partly drawn),T/C,[13],108 % of control
same,T/C,[14],110 % of control
same,T/C,[15],103 % of control
O=c1n(-c2ccccc2)c(=O)n2n1C1C3C4C3C2C2(F)C4C12 (stereo not drawn),T/C,"dose: 3.0 mg/kg/injection, schedule: Q04DX002 (ip), vehicle: Klucel (hydroxypropylcellulose) (HPC)",95 % of control
same,T/C,"dose: 6.0 mg/kg/injection, schedule: Q04DX002 (ip), vehicle: Klucel (hydroxypropylcellulose) (HPC)",101 % of control
same,T/C,[16],108 % of control
C/C(CCl)=N/NC1=NC(C)(CCC2(C)N=C(N/N=C(/C)CCl)SP2(=O)NC23CC4CC(CC(C4)C2)C3)P(=O)(NC23CC4CC(CC(C4)C2)C3)S1 (stereo not drawn),T/C,[13],105 % of control
same,T/C,[14],100 % of control
same,T/C,[15],91 % of control
CC(=O)OC1CC2CC(O)(C(=O)CO)CC2C2CCC3=CC(=O)CC3C(C)(O)C12 (stereo not drawn),T/C,[13],100 % of control
same,T/C,[14],93 % of control
same,T/C,[15],93 % of control
COC(=O)Nc1nc2ccc(C(=O)c3ccc(F)cc3)cc2[nH]1,T/C,[1],120 % of control
same,T/C,[2],180 % of control
same,T/C,"dose: 100.0 mg/kg/injection, schedule: Q01DX009 (ip), vehicle: saline with Tween-80",217 % of control and 236 % of control
C/C=C(/C)C(=O)OC1C[C@@]2(C)OC2C(OC(C)=O)[C@@]2(C)CC[C@@](O)(C(C)C)C12 (stereo partly drawn),T/C,"dose: 35.0 mg/kg/injection, schedule: Q01DX005 (ip), vehicle: saline with Tween-80",101 % of control
same,T/C,"dose: 70.0 mg/kg/injection, schedule: Q01DX005 (ip), vehicle: saline with Tween-80",96 % of control
same,T/C,"dose: 140.0 mg/kg/injection, schedule: Q01DX005 (ip), vehicle: saline with Tween-80",90 % of control
COc1ccc2c(c1O)CN1CCc3cc4c(cc3C1C2)OCO4 (stereo not drawn),T/C,[10],104 % of control
same,T/C,[11],110 % of control
same,T/C,[12],115 % of control
COc1cc2c3c4c(ccc3c1OC)CCCN4CC2,T/C,"dose: 50.0 mg/kg/injection, schedule: Q01DX005 (ip), vehicle: Klucel + Tween-80",99 % of control
same,T/C,"dose: 100.0 mg/kg/injection, schedule: Q01DX005 (ip), vehicle: Klucel + Tween-80",97 % of control
Cc1nnc(-n2nc(-c3ccc(Cl)cc3)cc2N)[nH]c1=O,T/C,[10],98 % of control
same,T/C,[11],106 % of control
same,T/C,[12],93 % of control
CC/C(Cc1ccc(OC)cc1)=C(/CC)c1ccc(OC)cc1,T/C,[3],98 % of control
same,T/C,[4],92 % of control
same,T/C,[5],102 % of control
c1cc[n+](CCC[n+]2ccccc2)cc1,T/C,[8],98 % of control
same,T/C,[9],97 % of control
same,T/C,[17],100 % of control
Cc1ccc(S(=O)(=O)Nc2ccc(-c3cc4cc(Cl)ccc4o3)cc2)cc1,T/C,"dose: 6.25 mg/kg/injection, schedule: Q01DX005 (ip), vehicle: saline with Tween-80",92 % of control
same,T/C,"dose: 12.5 mg/kg/injection, schedule: Q01DX005 (ip), vehicle: saline with Tween-80",91 % of control
same,T/C,"dose: 25.0 mg/kg/injection, schedule: Q01DX005 (ip), vehicle: saline with Tween-80",87 % of control
Cc1ccc(OS(=O)(=O)NC(=O)NCc2ccco2)cc1,T/C,[8],92 % of control
same,T/C,[9],101 % of control
same,T/C,[17],105 % of control
Nc1nnn(/N=C\c2ccccc2)n1,T/C,[3],92 % of control
same,T/C,[4],92 % of control
O=S(=O)(CCCl)c1ccccc1,T/C,"dose: 100.0 mg/kg/injection, schedule: Q04DX003 (ip), vehicle: Klucel (hydroxypropylcellulose) (HPC)",104 % of control
same,T/C,"dose: 200.0 mg/kg/injection, schedule: Q04DX003 (ip), vehicle: Klucel (hydroxypropylcellulose) (HPC)",106 % of control
same,T/C,"dose: 400.0 mg/kg/injection, schedule: Q04DX003 (ip), vehicle: Klucel (hydroxypropylcellulose) (HPC)",97 % of control
FC(F)(F)C1(C(F)(F)F)OI(Cl)c2ccccc21,T/C,[16],99 % of control
same,T/C,"dose: 25.0 mg/kg/injection, schedule: Q04DX002 (ip), vehicle: Klucel (hydroxypropylcellulose) (HPC)",99 % of control
same,T/C,"dose: 50.0 mg/kg/injection, schedule: Q04DX002 (ip), vehicle: Klucel (hydroxypropylcellulose) (HPC)",98 % of control
CC(C)C1CC(N(C)C)=CC(=S)N1 (stereo not drawn),T/C,[3],106 % of control
same,T/C,[4],110 % of control
same,T/C,"dose: 100.0 mg/kg/injection, schedule: Q01DX005 (ip), vehicle: saline",93 % of control
same,T/C,"dose: 200.0 mg/kg/injection, schedule: Q01DX005 (ip), vehicle: saline",102 % of control
Cc1ccc2nc(NC(=S)NCCCCCCNC(=S)Nc3ccc4cc(C)ccc4n3)ccc2c1,T/C,[6],93 % of control
same,T/C,[7],93 % of control
CC(C)CC(NC(=O)OC(C)(C)C)C(=O)ON1C(=O)CCC1=O (stereo not drawn),T/C,[10],111 % of control
same,T/C,[11],111 % of control
COc1cccc(C2c3cc4c(cc3OC(O)C2C)OCO4)c1O (stereo not drawn),T/C,[18],99 % of control
same,T/C,[19],99 % of control
same,T/C,"dose: 240.0 mg/kg/injection, schedule: Q01DX005 (ip), vehicle: Klucel (hydroxypropylcellulose) (HPC)",100 % of control
Fc1cccc(Cl)c1C(Nc1cnccn1)Nc1cnccn1,T/C,[18],104 % of control
same,T/C,[19],119 % of control
